Laboratory results from US20250230193A1, “CYCLIC COMPOUND HAVING SELECTIVE KRAS INHIBITORY EFFECT ON HRAS AND NRAS” (CHUGAI SEIYAKU KABUSHIKI KAISHA, priority 2022, published 2025).
Where a SMILES comes first, the peptide text is derived from it. Bridges are numbered along the chain shown (N, C = ends). [ ]: non-standard residue; d: D form. The star is where a group is joined. hPhe(3-Cl-4-CF3) = N[C@@H](CCc1ccc(C(F)(F)F)c(Cl)c1)C(=O)O; NPrPhe(4-CF3) = CCCN[C@@H](Cc1ccc(C(F)(F)F)cc1)C(=O)O; Pro(4-spirocPr) = O=C(O)[C@@H]1CC2(CC2)CN1; Abu(4,4,4-F3) = N[C@@H](CC(F)(F)F)C(=O)O; Morpholine(3S-CO) = O=C(O)[C@@H]1COCCN1; Pip(4,4-F2) = O=C(O)[C@@H]1CC(F)(F)CCN1; NMeGly(cPent) = CN[C@H](C(=O)O)C1CCCC1; Gly(cPent) = N[C@H](C(=O)O)C1CCCC1; Hyp = O=C(O)[C@@H]1C[C@@H](O)CN1; Gly(cBu) = N[C@H](C(=O)O)C1CCC1; NMeD = CN[C@@H](CC(=O)O)C(=O)O; NMeL = CN[C@@H](CC(C)C)C(=O)O; hPip = O=C(O)[C@@H]1CCCCCN1; Pip = O=C(O)[C@@H]1CCCCN1; Morpholide = C1CN(*)CCO1; Ac5c = NC1(C(=O)O)CCCC1; Aze = O=C(O)[C@@H]1CCN1; Abu = CC[C@H](N)C(=O)O; Sar = CNCC(=O)O

Key:
[1] = target: GDP-bound HRAS wild-type protein (Homo sapiens, UniProt P01112); test: Binding to HRAS by surface plasmon resonance (SPR), Single Cycle Kinetics; conditions: KD ratio HRAS/KRAS, SPR
[2] = target: GDP-bound NRAS wild-type protein (Homo sapiens, UniProt P01111); test: Binding to NRAS by surface plasmon resonance (SPR), Single Cycle Kinetics; conditions: KD ratio NRAS/KRAS, SPR
Chain of GDP-bound NRAS wild-type protein (P01111 whole entry): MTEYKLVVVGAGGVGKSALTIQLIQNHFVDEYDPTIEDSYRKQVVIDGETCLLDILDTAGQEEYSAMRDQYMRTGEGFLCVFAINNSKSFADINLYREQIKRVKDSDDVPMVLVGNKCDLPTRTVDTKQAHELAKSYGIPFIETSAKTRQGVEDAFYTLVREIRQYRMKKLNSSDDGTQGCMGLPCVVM

Chain of GDP-bound HRAS wild-type protein (P01112 whole entry): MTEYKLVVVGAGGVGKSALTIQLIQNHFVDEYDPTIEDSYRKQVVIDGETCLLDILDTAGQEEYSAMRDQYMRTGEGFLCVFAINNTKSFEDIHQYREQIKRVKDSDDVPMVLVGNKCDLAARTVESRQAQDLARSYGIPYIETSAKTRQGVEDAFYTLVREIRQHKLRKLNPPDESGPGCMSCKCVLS

| Structure (SMILES) | HRAS/KRAS (ratio of KD for GDP-bound HRAS wild-type to KD for KRAS) [1] | NRAS/KRAS (ratio of KD for GDP-bound NRAS wild-type to KD for KRAS) [2] |
| --- | --- | --- |
| CCCN1C(=O)CN(C)C(=O)[C@@H]2CCN2C(=O)[C@H]([C@@H](C)CC)NC(=O)[C@@H]2CCCCCN2C(=O)C[C@@H](C(=O)N2CCOCC2)N(C)C(=O)[C@H](C2CCCC2)N(C)C(=O)C2(CCCC2)NC(=O)[C@@H]2CCCN2C(=O)[C@H](CCc2ccc(C(F)(F)F)c(Cl)c2)NC(=O)CN(C)C(=O)[C@@H]1Cc1ccc(C(F)(F)F)cc1 [PP0302] ([hPip]I[Aze][Sar][NPrPhe(4-CF3)][Sar][hPhe(3-Cl-4-CF3)]P[Ac5c][NMeGly(cPent)][NMeD]-Morpholide; lactam N-11) | C (A compound having a KD ratio of 0.1 or more and less than 3 is denoted as C) | B (a compound having 3 or more and less than 10 is denoted as B) |
| CCCN1C(=O)CN(C)C(=O)[C@@H]2CCN2C(=O)[C@H](CC)NC(=O)[C@H](CC(C)C)N(C)C(=O)C[C@@H](C(=O)N2CCOCC2)N(C)C(=O)[C@H](C2CCCC2)N(C)C(=O)C2(CCCC2)NC(=O)[C@@H]2CCCN2C(=O)[C@H](CCc2ccc(C(F)(F)F)c(Cl)c2)NC(=O)CN(C)C(=O)[C@@H]1Cc1ccc(C(F)(F)F)cc1 [PP0303] ([NMeL][Abu][Aze][Sar][NPrPhe(4-CF3)][Sar][hPhe(3-Cl-4-CF3)]P[Ac5c][NMeGly(cPent)][NMeD]-Morpholide; lactam N-11) | B (a compound having 3 or more and less than 10 is denoted as B) | B (a compound having 3 or more and less than 10 is denoted as B) |
| CCCN1C(=O)CN(C)C(=O)[C@@H]2CCN2C(=O)[C@H](CC(F)(F)F)NC(=O)[C@H](CC(C)C)N(C)C(=O)C[C@@H](C(=O)N2CCOCC2)N(C)C(=O)[C@H](C2CCCC2)N(C)C(=O)C2(CCCC2)NC(=O)[C@@H]2CCCN2C(=O)[C@H](CCc2ccc(C(F)(F)F)c(Cl)c2)NC(=O)CN(C)C(=O)[C@@H]1Cc1ccc(C(F)(F)F)cc1 [PP0304] ([NMeL][Abu(4,4,4-F3)][Aze][Sar][NPrPhe(4-CF3)][Sar][hPhe(3-Cl-4-CF3)]P[Ac5c][NMeGly(cPent)][NMeD]-Morpholide; lactam N-11) | B (a compound having 3 or more and less than 10 is denoted as B) | B (a compound having 3 or more and less than 10 is denoted as B) |
| CCCN1C(=O)CN(C)C(=O)[C@@H]2CCN2C(=O)[C@H](C2CCC2)NC(=O)[C@H](CC(C)C)N(C)C(=O)C[C@@H](C(=O)N2CCOCC2)N(C)C(=O)[C@H](C2CCCC2)N(C)C(=O)C2(CCCC2)NC(=O)[C@@H]2CCCN2C(=O)[C@H](CCc2ccc(C(F)(F)F)c(Cl)c2)NC(=O)CN(C)C(=O)[C@@H]1Cc1ccc(C(F)(F)F)cc1 [PP0305] ([NMeL][Gly(cBu)][Aze][Sar][NPrPhe(4-CF3)][Sar][hPhe(3-Cl-4-CF3)]P[Ac5c][NMeGly(cPent)][NMeD]-Morpholide; lactam N-11) | C (A compound having a KD ratio of 0.1 or more and less than 3 is denoted as C) | B (a compound having 3 or more and less than 10 is denoted as B) |
| CCCN1C(=O)CN(C)C(=O)[C@@H]2CCN2C(=O)[C@H](C2CCCC2)NC(=O)[C@H](CC(C)C)N(C)C(=O)C[C@@H](C(=O)N2CCOCC2)N(C)C(=O)[C@H](C2CCCC2)N(C)C(=O)C2(CCCC2)NC(=O)[C@@H]2CCCN2C(=O)[C@H](CCc2ccc(C(F)(F)F)c(Cl)c2)NC(=O)CN(C)C(=O)[C@@H]1Cc1ccc(C(F)(F)F)cc1 [PP0306] ([NMeL][Gly(cPent)][Aze][Sar][NPrPhe(4-CF3)][Sar][hPhe(3-Cl-4-CF3)]P[Ac5c][NMeGly(cPent)][NMeD]-Morpholide; lactam N-11) | B (a compound having 3 or more and less than 10 is denoted as B) | B (a compound having 3 or more and less than 10 is denoted as B) |
| CCCN1C(=O)CN(C)C(=O)[C@@H]2CCN2C(=O)[C@H]([C@@H](C)CC)NC(=O)[C@H](CC(C)C)N(C)C(=O)C[C@@H](C(=O)N2CCOCC2)N(C)C(=O)[C@H](C2CCCC2)N(C)C(=O)C2(CCCC2)NC(=O)[C@@H]2CCN2C(=O)[C@H](CCc2ccc(C(F)(F)F)c(Cl)c2)NC(=O)CN(C)C(=O)[C@@H]1Cc1ccc(C(F)(F)F)cc1 [PP0307] ([NMeL]I[Aze][Sar][NPrPhe(4-CF3)][Sar][hPhe(3-Cl-4-CF3)][Aze][Ac5c][NMeGly(cPent)][NMeD]-Morpholide; lactam N-11) | B (a compound having 3 or more and less than 10 is denoted as B) | B (a compound having 3 or more and less than 10 is denoted as B) |
| CCCN1C(=O)CN(C)C(=O)[C@@H]2CCN2C(=O)[C@H]([C@@H](C)CC)NC(=O)[C@H](CC(C)C)N(C)C(=O)C[C@@H](C(=O)N2CCOCC2)N(C)C(=O)[C@H](C2CCCC2)N(C)C(=O)C2(CCCC2)NC(=O)[C@@H]2CC3(CC3)CN2C(=O)[C@H](CCc2ccc(C(F)(F)F)c(Cl)c2)NC(=O)CN(C)C(=O)[C@@H]1Cc1ccc(C(F)(F)F)cc1 [PP0308] ([NMeL]I[Aze][Sar][NPrPhe(4-CF3)][Sar][hPhe(3-Cl-4-CF3)][Pro(4-spirocPr)][Ac5c][NMeGly(cPent)][NMeD]-Morpholide; lactam N-11) | B (a compound having 3 or more and less than 10 is denoted as B) | B (a compound having 3 or more and less than 10 is denoted as B) |
| CCCN1C(=O)CN(C)C(=O)[C@@H]2CCN2C(=O)[C@H]([C@@H](C)CC)NC(=O)[C@H](CC(C)C)N(C)C(=O)C[C@@H](C(=O)N2CCOCC2)N(C)C(=O)[C@H](C2CCCC2)N(C)C(=O)C2(CCCC2)NC(=O)[C@@H]2C[C@@H](OC)CN2C(=O)[C@H](CCc2ccc(C(F)(F)F)c(Cl)c2)NC(=O)CN(C)C(=O)[C@@H]1Cc1ccc(C(F)(F)F)cc1 [PP0309] ([NMeL]I[Aze][Sar][NPrPhe(4-CF3)][Sar][hPhe(3-Cl-4-CF3)][Hyp](Me)[Ac5c][NMeGly(cPent)][NMeD]-Morpholide; lactam N-11) | B (a compound having 3 or more and less than 10 is denoted as B) | B (a compound having 3 or more and less than 10 is denoted as B) |
| CCCN1C(=O)CN(C)C(=O)[C@@H]2CCN2C(=O)[C@H]([C@@H](C)CC)NC(=O)[C@H](CC(C)C)N(C)C(=O)C[C@@H](C(=O)N2CCOCC2)N(C)C(=O)[C@H](C2CCCC2)N(C)C(=O)C2(CCCC2)NC(=O)[C@@H]2C[C@@H](OCC)CN2C(=O)[C@H](CCc2ccc(C(F)(F)F)c(Cl)c2)NC(=O)CN(C)C(=O)[C@@H]1Cc1ccc(C(F)(F)F)cc1 [PP0310] ([NMeL]I[Aze][Sar][NPrPhe(4-CF3)][Sar][hPhe(3-Cl-4-CF3)][Hyp](Et)[Ac5c][NMeGly(cPent)][NMeD]-Morpholide; lactam N-11) | C (A compound having a KD ratio of 0.1 or more and less than 3 is denoted as C) | B (a compound having 3 or more and less than 10 is denoted as B) |
| CCCN1C(=O)CN(C)C(=O)[C@@H]2CCN2C(=O)[C@H]([C@@H](C)CC)NC(=O)[C@H](CC(C)C)N(C)C(=O)C[C@@H](C(=O)N2CCOCC2)N(C)C(=O)[C@H](C2CCCC2)N(C)C(=O)C2(CCCC2)NC(=O)[C@@H]2CCCCN2C(=O)[C@H](CCc2ccc(C(F)(F)F)c(Cl)c2)NC(=O)CN(C)C(=O)[C@@H]1Cc1ccc(C(F)(F)F)cc1 [PP0311] ([NMeL]I[Aze][Sar][NPrPhe(4-CF3)][Sar][hPhe(3-Cl-4-CF3)][Pip][Ac5c][NMeGly(cPent)][NMeD]-Morpholide; lactam N-11) | B (a compound having 3 or more and less than 10 is denoted as B) | B (a compound having 3 or more and less than 10 is denoted as B) |
| CCCN1C(=O)CN(C)C(=O)[C@@H]2CCN2C(=O)[C@H]([C@@H](C)CC)NC(=O)[C@H](CC(C)C)N(C)C(=O)C[C@@H](C(=O)N2CCOCC2)N(C)C(=O)[C@H](C2CCCC2)N(C)C(=O)C2(CCCC2)NC(=O)[C@@H]2CC(F)(F)CCN2C(=O)[C@H](CCc2ccc(C(F)(F)F)c(Cl)c2)NC(=O)CN(C)C(=O)[C@@H]1Cc1ccc(C(F)(F)F)cc1 [PP0312] ([NMeL]I[Aze][Sar][NPrPhe(4-CF3)][Sar][hPhe(3-Cl-4-CF3)][Pip(4,4-F2)][Ac5c][NMeGly(cPent)][NMeD]-Morpholide; lactam N-11) | B (a compound having 3 or more and less than 10 is denoted as B) | B (a compound having 3 or more and less than 10 is denoted as B) |
| CCCN1C(=O)CN(C)C(=O)[C@@H]2CCN2C(=O)[C@H]([C@@H](C)CC)NC(=O)[C@H](CC(C)C)N(C)C(=O)C[C@@H](C(=O)N2CCOCC2)N(C)C(=O)[C@H](C2CCCC2)N(C)C(=O)C2(CCCC2)NC(=O)[C@@H]2COCCN2C(=O)[C@H](CCc2ccc(C(F)(F)F)c(Cl)c2)NC(=O)CN(C)C(=O)[C@@H]1Cc1ccc(C(F)(F)F)cc1 [PP0313] ([NMeL]I[Aze][Sar][NPrPhe(4-CF3)][Sar][hPhe(3-Cl-4-CF3)][Morpholine(3S-CO)][Ac5c][NMeGly(cPent)][NMeD]-Morpholide; lactam N-11) | C (A compound having a KD ratio of 0.1 or more and less than 3 is denoted as C) | B (a compound having 3 or more and less than 10 is denoted as B) |
| CCCN1C(=O)CN(C)C(=O)[C@@H]2CCN2C(=O)[C@H]([C@@H](C)CC)NC(=O)[C@H](CC(C)C)N(C)C(=O)C[C@@H](C(=O)N2CCOCC2)N(C)C(=O)[C@H](C2CCCC2)N(C)C(=O)C2(CCCC2)NC(=O)CN(C)C(=O)[C@H](CCc2ccc(C(F)(F)F)c(Cl)c2)NC(=O)CN(C)C(=O)[C@@H]1Cc1ccc(C(F)(F)F)cc1 [PP0314] ([NMeL]I[Aze][Sar][NPrPhe(4-CF3)][Sar][hPhe(3-Cl-4-CF3)][Sar][Ac5c][NMeGly(cPent)][NMeD]-Morpholide; lactam N-11) | C (A compound having a KD ratio of 0.1 or more and less than 3 is denoted as C) | B (a compound having 3 or more and less than 10 is denoted as B) |
